Source: the NIST ThermoML archive (doi:10.1021/je500731x)

Settings: Liquid, Ebulliometric method (Recirculating still)

CCCCCCCCC [nonane]
Settings	vapor or sublimation pressure [kPa]
391.78 K	40
391.87 K	40
391.9 K	40

CCCCO [butan-1-ol]
Settings	vapor or sublimation pressure [kPa]
390.49 K	101.3

CCCCCC(C)=O [2-heptanone]
Settings	vapor or sublimation pressure [kPa]
354.77 K	9.87
358.59 K	11.52
365.38 K	15.05
367.88 K	16.52
368.9 K	17.34
373.79 K	20.76
373.84 K	20.76
379.25 K	25.32
379.3 K	25.32
383.78 K	29.69
383.83 K	29.69
388.51 K	34.81
392.54 K	40
393.11 K	40.52
398.45 K	48.09
403.15 K	55.74
405.81 K	60.35
409.67 K	67.5
413.3 K	75.05
416.77 K	83.2
420.2 K	91.5

CCCCCCCCCC [decane]
Settings	vapor or sublimation pressure [kPa]
413.88 K	40

CCCCC(=O)CC [3-heptanone]
Settings	vapor or sublimation pressure [kPa]
354.82 K	11.05
358.58 K	12.93
363.03 K	15.51
367.95 K	18.75
373.6 K	23.27
377.99 K	27.11
383.09 K	32.58
388.11 K	40
388.36 K	40
388.62 K	39.13
388.67 K	40
393.02 K	45.12
398.84 K	54.02
404.44 K	64.03
409.63 K	74.5
412.95 K	82
416.5 K	90.5

CCO [ethanol]
Settings	vapor or sublimation pressure [kPa]
351.14 K	101.3

CCCC(=O)CCC [4-heptanone]
Settings	vapor or sublimation pressure [kPa]
358.74 K	14.54
363.42 K	17.72
370.01 K	22.69
377.77 K	29.93
383.7 K	36.63
385.47 K	40
385.5 K	40
385.87 K	40
388.63 K	43.17
393.78 K	50.95
398.38 K	59.15
403.74 K	69.39
407.98 K	78.55
411.2 K	86.2
413.43 K	91.55

CCCCCCCC [octane]
Settings	vapor or sublimation pressure [kPa]
367.97 K	40
368.3 K	40
368.32 K	40
